In brackets after ≈: the same amount, converted by molar mass.
Legend:
[1] = test system: Escherichia coli; test: In vitro antibacterial evaluation: minimum inhibitory concentration (MIC), broth dilution method; format: cell-based; details: 5×10^5 CFU/mL, 18 hours at 35° C.
Summary of the method: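 An MIC is reported for each organism as the least concentration giving inhibition, using broth dilution over 64-0.06 μg/mL with a 5×10^5 CFU/mL inoculum.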

[2] = test system: Enterococcus sp.; test: as above; format: cell-based; details: broth dilution, 5×10^5 CFU/mL, 18 hours at 35° C.
Summary of the method: (§1)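 Inoculum: 5×10^5 CFU/mL. Range: 64-0.06 μg/mL. Medium: Muller-Hinton II […]; NCCLS M7-A2 broth dilution. Endpoint: lowest concentration inhibiting growth. Strains include methicillin-, penicillin- and/or vancomycin-resistant clinical isolates.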

[3] = test system: Staphylococcus sp.; test: as above; format: cell-based; details: for MIC Staphylococcus aureus (ATCC 29213): strain ATCC 29213; for MIC Staphylococcus aureus (GC 1131): strain GC 1131; for MIC Staphylococcus aureus (GC 3051): strain GC 3051; for MIC Staphylococcus aureus (GC 3053): strain GC 3053; for MIC Staphylococcus aureus (GC 4541): strain GC 4541; for MIC Staphylococcus aureus (GC 4542): strain GC 4542; for MIC Staphylococcus aureus-SMITH (GC 4543): strain GC 4543; for MIC Staphylococcus aureus (GC 4544): strain GC 4544; for MIC Staphylococcus aureus (GC 4545): strain GC 4545; for MIC Staphylococcus haemolyticus (GC 4546): strain GC 4546; for MIC Coagulase Negative Staphylococcus (GC 4547): strain GC 4547; for MIC Coagulase Negative Staphylococcus (GC 4548): strain GC 4548; for MIC Coagulase Negative Staphylococcus (GC 4549): strain GC 4549; for MIC Coagulase Negative Staphylococcus (GC 4551): strain GC 4551; for MIC Coagulase Negative Staphylococcus (GC 6257): strain GC 6257
Summary of the method: as §1

[4] = test system: Streptococcus sp.; test: as above; format: cell-based; details: broth dilution, 5×10^5 CFU/mL, 18 hours at 35° C.
Summary of the method: as §1

[5] = test system: Enterococcus faecalis (GC 6189), vancomycin resistant strain; test: Acute lethal infection in mice (ED50); format: in vivo; details: female CD-1 mice, intraperitoneal challenge, intravenous dose 30 min. after infection, 7 day survival ratios
Summary of the method: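 Lethal systemic infection model: female CD-1 mice, 20 ± 1-2 g, intraperitoneal challenge. Single intravenous treatment 30 min after infection; 7-day survival, pooled from 3 tests, gives ED50.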

[6] = broth dilution, 18 hours at 35° C.

Compound: CCC(CC)C1OCC2OC(OC3C(CO)OC(Oc4ccc(CC5NC(=O)C(C(C)c6ccccc6)NC(=O)CNC(=O)C(CO)NC(=O)C(C(O)C6CNC(=N)N6C6OC(CO)C(O)C(O)C6O)NC(=O)C(C(O)C6CNC(=N)N6)NC5=O)cc4)C(O)C3O)C(O)C(O)C2O1 (stereo not drawn) [Example 116, Cyclo[glycyl-β-methylphenylalanyl-O-[4-O-[4,6-O-(2-ethylbutylidene)hexopyranosyl]-hexopyranosyl]tyrosyl-3-(2-iminoimidazolidin-4-yl)seryl-3-(3-hexopyranosyl-2-iminoimidazolidin-4-yl)serylseryl]]
- MIC Escherichia coli (ATCC 25922) [1]: 32 µg/mL (≈ 23.2 µM)
- MIC Escherichia coli (GC 4559) [1]: 64 µg/mL (≈ 46.5 µM)
- MIC Escherichia coli (GC 4560) [1]: 1 µg/mL (≈ 0.726 µM)
- MIC Enterococccus avium (GC 4558) [2]: 2 µg/mL (≈ 1.45 µM)
- MIC Enterococccus faecalis (ATCC 29212) [2]: 2 µg/mL (≈ 1.45 µM)
- MIC Enterococccus faecalis (GC 2691) [2]: 2 µg/mL (≈ 1.45 µM)
- MIC Enterococccus faecalis (GC 3059) [2]: 2 µg/mL (≈ 1.45 µM)
- MIC Enterococccus faecalis (GC 4552) [2]: 2 µg/mL (≈ 1.45 µM)
- MIC Enterococccus faecalis (GC 4553) [2]: 2 µg/mL (≈ 1.45 µM)
- MIC Enterococccus faecalis (GC 4554) [2]: 2 µg/mL (≈ 1.45 µM)
- MIC Enterococccus faecalis (GC 6189) [2]: 2 µg/mL (≈ 1.45 µM)
- MIC Enterococccus faecium (GC 2243) [2]: 2 µg/mL (≈ 1.45 µM)
- MIC Enterococccus faecium (GC 4556) [2]: 2 µg/mL (≈ 1.45 µM)
- MIC Enterococccus faecium (GC 4557) [2]: 2 µg/mL (≈ 1.45 µM)
- MIC Enterococcus faecalis (GC 2242) [2]: 2 µg/mL (≈ 1.45 µM)
- MIC Staphylococcus aureus (ATCC 29213) [3]: 1 µg/mL (≈ 0.726 µM)
- MIC Staphylococcus aureus (ATCC 29213) [3, 6]: 1 µg/mL (≈ 0.726 µM)
- MIC Staphylococcus aureus (GC 1131) [3]: 1 µg/mL (≈ 0.726 µM)
- MIC Staphylococcus aureus (GC 1131) [3, 6]: 1 µg/mL (≈ 0.726 µM)
- MIC Staphylococcus aureus (GC 3051) [3]: 1 µg/mL (≈ 0.726 µM)
- MIC Staphylococcus aureus (GC 3051) [3, 6]: 1 µg/mL (≈ 0.726 µM)
- MIC Staphylococcus aureus (GC 3053) [3]: 1 µg/mL (≈ 0.726 µM)
- MIC Staphylococcus aureus (GC 3053) [3, 6]: 1 µg/mL (≈ 0.726 µM)
- MIC Staphylococcus aureus (GC 4541) [3]: 1 µg/mL (≈ 0.726 µM)
- MIC Staphylococcus aureus (GC 4541) [3, 6]: 1 µg/mL (≈ 0.726 µM)
- MIC Staphylococcus aureus (GC 4542) [3]: 0.5 µg/mL (≈ 0.363 µM)
- MIC Staphylococcus aureus (GC 4542) [3, 6]: 0.5 µg/mL (≈ 0.363 µM)
- MIC Staphylococcus aureus-SMITH (GC 4543) ([3]; 18 hours at 35° C.): 1 µg/mL (≈ 0.726 µM)
- MIC Staphylococcus aureus-SMITH (GC 4543) [3, 6]: 1 µg/mL (≈ 0.726 µM)
- MIC Staphylococcus aureus (GC 4544) [3]: 1 µg/mL (≈ 0.726 µM)
- MIC Staphylococcus aureus (GC 4544) [3, 6]: 1 µg/mL (≈ 0.726 µM)
- MIC Staphylococcus aureus (GC 4545) [3]: 1 µg/mL (≈ 0.726 µM)
- MIC Staphylococcus aureus (GC 4545) [3, 6]: 1 µg/mL (≈ 0.726 µM)
- MIC Staphylococcus haemolyticus (GC 4546) [3]: 0.5 µg/mL (≈ 0.363 µM)
- MIC Staphylococcus haemolyticus (GC 4546) [3, 6]: 0.5 µg/mL (≈ 0.363 µM)
- MIC Coagulase Negative Staphylococcus (GC 4547) [3]: 1 µg/mL (≈ 0.726 µM)
- MIC Coagulase Negative Staphylococcus (GC 4547) [3, 6]: 1 µg/mL (≈ 0.726 µM)
- MIC Coagulase Negative Staphylococcus (GC 4548) [3]: 1 µg/mL (≈ 0.726 µM)
- MIC Coagulase Negative Staphylococcus (GC 4548) [3, 6]: 1 µg/mL (≈ 0.726 µM)
- MIC Coagulase Negative Staphylococcus (GC 4549) [3]: 1 µg/mL (≈ 0.726 µM)
- MIC Coagulase Negative Staphylococcus (GC 4549) [3, 6]: 1 µg/mL (≈ 0.726 µM)
- MIC Coagulase Negative Staphylococcus (GC 4551) [3]: 1 µg/mL (≈ 0.726 µM)
- MIC Coagulase Negative Staphylococcus (GC 4551) [3, 6]: 1 µg/mL (≈ 0.726 µM)
- MIC Coagulase Negative Staphylococcus (GC 6257) [3]: 0.5 µg/mL (≈ 0.363 µM)
- MIC Coagulase Negative Staphylococcus (GC 6257) [3, 6]: 0.5 µg/mL (≈ 0.363 µM)
- MIC Streptococcus agalactiae (GC 4564) [4]: 0.25 µg/mL (≈ 0.181 µM)
- MIC Streptococcus pneumoniae (GC 1894) [4]: <0.06 µg/mL
- MIC Streptococcus pneumoniae (GC 4565) [4]: <0.06 µg/mL
- MIC Streptococcus pneumonine (ATCC 6301) [4]: <0.06 µg/mL
- MIC Streptococcus pyogenes (GC 4563) [4]: 0.25 µg/mL (≈ 0.181 µM)
- median effective dose (ED50), Enterococcus faecalis (GC 6189) [5]: 0.46 mg/kg

Compound: CC(c1ccccc1)C1NC(=O)CNC(=O)C(CO)NC(=O)C(C(O)C2CNC(=N)N2C2OC(CO)C(O)C(O)C2O)NC(=O)C(C(O)C2CNC(=N)N2)NC(=O)C(Cc2ccc(OC3OC(CO)C(OC4OC5COC(C6CCCC6)OC5C(O)C4O)C(O)C3O)cc2)NC1=O (stereo not drawn) [Example 117, Cyclo[glycyl-β-methylphenylalanyl-O-[4-O-[4,6-O-(cyclopentylethylene)hexopyranosyl]-hexopyranosyl]tyrosyl-3-(2-iminoimidazolidin-4-yl)seryl-3-(3-hexopyranosyl-2-iminoimidazolidin-4-yl)serylseryl]]
- MIC Escherichia coli (ATCC 25922) [1]: 64 µg/mL (≈ 46.5 µM)
- MIC Escherichia coli (GC 4559) [1]: 32 µg/mL (≈ 23.3 µM)
- MIC Escherichia coli (GC 4560) [1]: 1 µg/mL (≈ 0.727 µM)
- MIC Enterococccus avium (GC 4558) [2]: 4 µg/mL (≈ 2.91 µM)
- MIC Enterococccus faecalis (ATCC 29212) [2]: 2 µg/mL (≈ 1.45 µM)
- MIC Enterococccus faecalis (GC 2691) [2]: 4 µg/mL (≈ 2.91 µM)
- MIC Enterococccus faecalis (GC 3059) [2]: 4 µg/mL (≈ 2.91 µM)
- MIC Enterococccus faecalis (GC 4552) [2]: 4 µg/mL (≈ 2.91 µM)
- MIC Enterococccus faecalis (GC 4553) [2]: 4 µg/mL (≈ 2.91 µM)
- MIC Enterococccus faecalis (GC 4554) [2]: 2 µg/mL (≈ 1.45 µM)
- MIC Enterococccus faecalis (GC 6189) [2]: 2 µg/mL (≈ 1.45 µM)
- MIC Enterococccus faecium (GC 2243) [2]: 2 µg/mL (≈ 1.45 µM)
- MIC Enterococccus faecium (GC 4556) [2]: 2 µg/mL (≈ 1.45 µM)
- MIC Enterococccus faecium (GC 4557) [2]: 2 µg/mL (≈ 1.45 µM)
- MIC Enterococcus faecalis (GC 2242) [2]: 2 µg/mL (≈ 1.45 µM)
- MIC Staphylococcus aureus (ATCC 29213) [3]: 1 µg/mL (≈ 0.727 µM)
- MIC Staphylococcus aureus (ATCC 29213) [3, 6]: 1 µg/mL (≈ 0.727 µM)
- MIC Staphylococcus aureus (GC 1131) [3]: 2 µg/mL (≈ 1.45 µM)
- MIC Staphylococcus aureus (GC 1131) [3, 6]: 2 µg/mL (≈ 1.45 µM)
- MIC Staphylococcus aureus (GC 3051) [3]: 1 µg/mL (≈ 0.727 µM)
- MIC Staphylococcus aureus (GC 3051) [3, 6]: 1 µg/mL (≈ 0.727 µM)
- MIC Staphylococcus aureus (GC 3053) [3]: 2 µg/mL (≈ 1.45 µM)
- MIC Staphylococcus aureus (GC 3053) [3, 6]: 2 µg/mL (≈ 1.45 µM)
- MIC Staphylococcus aureus (GC 4541) [3]: 1 µg/mL (≈ 0.727 µM)
- MIC Staphylococcus aureus (GC 4541) [3, 6]: 1 µg/mL (≈ 0.727 µM)
- MIC Staphylococcus aureus (GC 4542) [3]: 1 µg/mL (≈ 0.727 µM)
- MIC Staphylococcus aureus (GC 4542) [3, 6]: 1 µg/mL (≈ 0.727 µM)
- MIC Staphylococcus aureus-SMITH (GC 4543) ([3]; 18 hours at 35° C.): 1 µg/mL (≈ 0.727 µM)
- MIC Staphylococcus aureus-SMITH (GC 4543) [3, 6]: 1 µg/mL (≈ 0.727 µM)
- MIC Staphylococcus aureus (GC 4544) [3]: 2 µg/mL (≈ 1.45 µM)
- MIC Staphylococcus aureus (GC 4544) [3, 6]: 2 µg/mL (≈ 1.45 µM)
- MIC Staphylococcus aureus (GC 4545) [3]: 1 µg/mL (≈ 0.727 µM)
- MIC Staphylococcus aureus (GC 4545) [3, 6]: 1 µg/mL (≈ 0.727 µM)
- MIC Staphylococcus haemolyticus (GC 4546) [3]: 1 µg/mL (≈ 0.727 µM)
- MIC Staphylococcus haemolyticus (GC 4546) [3, 6]: 1 µg/mL (≈ 0.727 µM)
- MIC Coagulase Negative Staphylococcus (GC 4547) [3]: 1 µg/mL (≈ 0.727 µM)
- MIC Coagulase Negative Staphylococcus (GC 4547) [3, 6]: 1 µg/mL (≈ 0.727 µM)
- MIC Coagulase Negative Staphylococcus (GC 4548) [3]: 1 µg/mL (≈ 0.727 µM)
- MIC Coagulase Negative Staphylococcus (GC 4548) [3, 6]: 1 µg/mL (≈ 0.727 µM)
- MIC Coagulase Negative Staphylococcus (GC 4549) [3]: 1 µg/mL (≈ 0.727 µM)
- MIC Coagulase Negative Staphylococcus (GC 4549) [3, 6]: 1 µg/mL (≈ 0.727 µM)
- MIC Coagulase Negative Staphylococcus (GC 4551) [3]: 2 µg/mL (≈ 1.45 µM)
- MIC Coagulase Negative Staphylococcus (GC 4551) [3, 6]: 2 µg/mL (≈ 1.45 µM)
- MIC Coagulase Negative Staphylococcus (GC 6257) [3]: 0.5 µg/mL (≈ 0.364 µM)
- MIC Coagulase Negative Staphylococcus (GC 6257) [3, 6]: 0.5 µg/mL (≈ 0.364 µM)
- MIC Streptococcus agalactiae (GC 4564) [4]: 0.25 µg/mL (≈ 0.182 µM)
- MIC Streptococcus pneumoniae (GC 1894) [4]: <0.06 µg/mL
- MIC Streptococcus pneumoniae (GC 4565) [4]: 0.12 µg/mL (≈ 0.0872 µM)
- MIC Streptococcus pneumonine (ATCC 6301) [4]: <0.06 µg/mL
- MIC Streptococcus pyogenes (GC 4563) [4]: 0.25 µg/mL (≈ 0.182 µM)
- median effective dose (ED50), Enterococcus faecalis (GC 6189) [5]: 0.38 mg/kg

Source: patent publication US8247211B2, “Glycopeptide antibiotics” (American Cyanamid Company, priority 2001, dated 2012)
